{"source": "paper PMC4738272", "about": "(Scientific Reports, 2016)", "key": {"HepG2/C3A [1]": {"tested_on": "HepG2/C3A", "test": "MTT viability of liver module in 4-organ system", "format": "cell-based, human", "details": "4-organ co-culture under flow, serum-free medium, 48 h drug treatment, day 7, vs control, DOX 5 μM, ATR 100 μM, VPA 2 mM, APAP 5 mM, AMAP 5 mM", "quoted_text": "(§1) The four organ in vitro systems were assembled, on day 0, by placing the corresponding surfaces cell side up in a specific chamber of the housing (liver coverslip into chamber 1, cardiac coverslips and cantilevers into chambers 2 and 4, muscle coverslips into chamber 5, and neuron coverslips into chamber 3 and they were then topped with the serum-free co-culture medium (1X Neurobasal Medium, 1X B27, 1X AB/AM, 1X Glutamax (all from Life Technologies)) before locking the system. Right after assembling, the medium was completely replaced with 4 mL of the co-culture defined serum-free medium and the systems placed on a rocking platform inside an incubator. Platforms were checked every day by inspecting for expected cell morphology inside the system and by replacing medium (1.2 mL total volume) from the two reservoirs (30% of the total volume was replaced) with fresh medium. Drug incubation was initiated on day 5 of the co-culture by addition of the drug through the reservoir closer to the liver chamber (no. 1), allowing a first contact of the drug with the liver. 20 μL of the drug stock solution (or vehicle) to achieve a working concentration in 4 mL of total volume in the platform was utilized. On day 6, after 24 hours of drug incubation, 6 μL of the drug stock solution (or vehicle) was added to the fresh medium exchange volume (1.2 mL). After 48 hour of drug incubation, on day 7, systems were disassembled to test organ functionality that same day. For mono-culture conditions, surfaces remained in a 12-well plated with 1 mL of the co-culture defined serum-free medium maintained by daily replacement of half volume.\n(§2) Seven days after the initiation of the co-culture, viability of each organ chamber, except for neurons, was evaluated through an MTT assay. […] Cell viability was measured at 570 nm in a Synergy HT plate reader and KC4 software. The results were expressed as the percentage of cell survival relative to the control (untreated or incubated with vehicle). The neuronal fraction viability was evaluated through morphological analysis throughout the co-culture experiment as the final coverslips were used for patch-clamp electrophysiology. Phase images (10X) where obtained every day of the co-culture. Neuronal viability was evaluated by cell morphology integrity and by cell count from day 1 to day 14."}, "HepG2/C3A [2]": {"tested_on": "HepG2/C3A", "test": "Urea quantification, liver fraction of 4-organ system", "format": "cell-based, human", "details": "4-organ co-culture under flow, 48 h drug treatment, vs control"}, "HepG2/C3A [3]": {"tested_on": "HepG2/C3A", "test": "Human Serum Albumin quantification (ELISA), liver fraction of 4-organ system", "format": "cell-based", "details": "4-organ co-culture under flow, 48 h drug treatment, vs control, DOX 5 μM, ATR 100 μM, VPA 2 mM, APAP 5 mM, AMAP 5 mM", "description": "Human Serum Albumin (HSA) production from the liver fraction was tracked throughout the co-culture, by measuring the HSA concentration in the supernatant of the culture as it represents liver protein anabolism. Samples were collected from the exchanged medium (1.2 mL) and stored at −20 °C until analysis. One freeze-thaw cycle occurred before samples were analyzed following manufacturers’ instructions provided in the ELISA Starter Accessory Kit (Bethyl Laboratories Inc, Cat #: E101). Samples were diluted as necessary in sample conjugate/diluent buffer to ensure readings measured within the range of the standard curve. The standard curve was prepared by serial dilutions of human reference serum in sample conjugate/diluent buffer (0–1600 ng/ml).\nFinal HSA concentrations were calculated in an excel file by first removing the average OD reading measured for blanks from average sample and standard OD readings. Concentrations of standard dilutions were plotted against average OD values measured in XY scatter plots. A standard curve was created by adding an order of 2 polynomial trendline to XY scatter plots and selecting the option to display the equation of the trendline, as well as the R^2 value, on each scatter plot (for ease of analysis HSA sigmoidal curves were split into 3 standard curves with HSA concentration ranges of 0–200 ng/ml, 200–800 ng/ml and […]). Quadratic equations were rearranged to make X (sample HSA concentration) the unknown variant. Y values (OD values) and a/b/c constants generated from trendline equations were inputted into rearranged quadratic equations per assay. HSA concentrations calculated were corrected accordingly for any differences in culture final volumes, sample dilutions during assays and cells number."}, "[4]": {"tested_on": "iPSc differentiated Cardiomyocytes", "test": "Cardiac beating frequency from video recordings", "format": "cell-based, human", "details": "4-organ co-culture under flow, 48 h drug treatment, day 7, vs control; for Cardiomyocyte beating rate (beat frequency), decrease: DOX 5 μM, AMAP 5 mM; for Cardiomyocyte beating rate (beat frequency), increase: ATR 100 μM, VPA 2 mM, APAP 5 mM", "description": "Seven or fourteen days after the co-culture, cardiac beating frequency was quantified from video recordings of three different areas of each of the cMEA surfaces, where the cardiomyocytes culture where located. Surfaces were located in a 37 °C bath platform containing co-culture medium with 50 mM HEPES on the stage of a Zeiss Axioscope 2FS upright microscope. Beats were counted in a period of 10 s, and the average number of 3 values was obtained. Drug effect was plotted as percentage of change compared to the control conditions."}, "Human Skeletal Myofibers [5]": {"tested_on": "Human Skeletal Myofibers", "test": "Myotube stimulated contraction (binary: contracting or not)", "format": "cell-based", "details": "4-organ co-culture under flow, 48 h drug treatment, day 7, broad-field electrical stimulation, DOX 5 μM, ATR 100 μM, VPA 2 mM, APAP 5 mM, AMAP 5 mM", "description": "Myotube contraction in coverslips was evaluated after the co-culture was finalized. Individual surfaces were evaluated as previously reported in the group. Drugs effects were quantify in a binary code mode, cells were or were not contracting."}, "neurons [6]": {"tested_on": "neurons", "test": "Neuron electrophysiology recording (patch clamp)", "format": "cell-based, human", "details": "4-organ co-culture under flow, 48 h drug treatment, day 7, vs control, DOX 5 μM, ATR 100 μM, APAP 5 mM, AMAP 5 mM; for Neuronal electrophysiology, overall effect: VPA 2 mM", "description": "Electrophysiological properties of neuron cultures where recorded on the last day of co-culture following a previously described method. Values of firing, repetitive firing, spontaneous firing, inward sodium current, outward potassium current, action potential peak voltage and the resting membrane potential, characterized the mature functionality of neurons in the in vitro system. Drug alterations of the neuronal electrophysiology are discussed in this manuscript."}, "Liver": {"tested_on": "Liver", "parameters": "method as in Literature", "details": "general toxic effects reported in the literature; ref Literature; cited from earlier work"}, "Muscle": {"tested_on": "Muscle", "parameters": "method as in Literature", "details": "general toxic effects reported in the literature; ref Literature; cited from earlier work"}, "Neurons [7]": {"tested_on": "Neurons", "parameters": "method as in Literature", "details": "general toxic effects reported in the literature; ref Literature; cited from earlier work"}, "Cardiomyocytes": {"tested_on": "Cardiomyocytes", "parameters": "method as in Literature", "details": "general toxic effects reported in the literature; ref Literature; cited from earlier work"}, "[8]": {"tested_on": "iPSc differentiated Cardiomyocytes", "test": "MTT viability of cardiac module in 4-organ system", "details": "4-organ co-culture under flow, serum-free medium, 48 h drug treatment, day 7, vs control, DOX 5 μM, ATR 100 μM, VPA 2 mM, APAP 5 mM, AMAP 5 mM", "quoted_text": "as §1, §2"}, "Human Skeletal Myofibers [9]": {"tested_on": "Human Skeletal Myofibers", "test": "MTT viability of skeletal muscle module in 4-organ system", "details": "4-organ co-culture under flow, serum-free medium, 48 h drug treatment, day 7, vs control, DOX 5 μM, ATR 100 μM, VPA 2 mM, APAP 5 mM, AMAP 5 mM", "quoted_text": "as §1, §2"}, "neurons [10]": {"tested_on": "neurons", "test": "Neuronal viability by morphological analysis and cell count in 4-organ system", "details": "4-organ co-culture under flow, serum-free medium, 48 h drug treatment, day 7, vs control, DOX 5 μM, ATR 100 μM, VPA 2 mM, APAP 5 mM, AMAP 5 mM", "quoted_text": "as §1, §2"}, "[11]": {"details": "therapeutic dosages; cited from earlier work"}, "[12]": {"details": "cited from earlier work"}}, "note": "Several values for one entry are separate records, joined by “and”; a condition that tells them apart may be missing. Equal entries are not always repeated. Entries after “also recorded” stand apart in the source; their conditions may differ."}
{"smiles": "CC(=O)Nc1cccc(O)c1", "note": "[N-Acetyl-m-aminophenol]", "values": [{"measurement": "Liver (hepatocyte) cell viability, loss", "setting": "HepG2/C3A [1]", "value": "Toxicity not observed"}, {"measurement": "Liver (hepatocyte) cell viability, loss", "setting": "HepG2/C3A [1]; listed as AMAP", "value": "No significant effects"}, {"measurement": "Urea production, increase", "setting": "HepG2/C3A [2]; DOX 5 μM, ATR 100 μM, APAP 5 mM, AMAP 5 mM", "value": "138 ± 19", "unit": "%"}, {"measurement": "HSA (albumin) production, increase", "setting": "HepG2/C3A [3]", "value": "23 ± 4", "unit": "%"}, {"measurement": "Cardiomyocyte beating rate (beat frequency), decrease", "setting": "[4]", "value": "25 ± 4% decrease in beating rate"}, {"measurement": "Cardiomyocyte beating rate (beat frequency), decrease", "setting": "[4]; listed as AMAP", "value": "25 ± 4% and 30%"}, {"measurement": "Skeletal muscle loss of contractile ability (share of cultures in which contraction ceased)", "setting": "Human Skeletal Myofibers [5]", "value": "No loss in contractile ability"}, {"measurement": "Skeletal muscle loss of contractile ability (share of cultures in which contraction ceased)", "setting": "Human Skeletal Myofibers [5]; listed as AMAP", "value": "not affected"}, {"measurement": "Neuronal repetitive and spontaneous firing ability", "setting": "neurons [6]", "value": "conserved"}, {"measurement": "Neuronal electrophysiology, overall effect", "setting": "neurons [6]", "value": "Normal electrophysiology"}, {"measurement": "Neuronal electrophysiology, overall effect", "setting": "neurons [6]; listed as AMAP", "value": "no significant changes compared to the control"}, {"measurement": "Drug effects on cell functionality, Liver, Literature", "setting": "Liver", "value": "Toxicity not reported"}, {"measurement": "Drug effects on cell viability, Liver, Literature", "setting": "Liver", "value": "Toxicity not reported"}, {"measurement": "Drug effects on cell functionality, Muscle, Literature", "setting": "Muscle", "value": "Toxicity not reported"}, {"measurement": "Drug effects on cell viability, Muscle, Literature", "setting": "Muscle", "value": "Toxicity not reported"}, {"measurement": "Drug effects on cell functionality, Neurons, Literature", "setting": "Neurons [7]", "value": "Toxicity not reported"}, {"measurement": "Drug effects on cell viability, Neurons, Literature", "setting": "Neurons [7]", "value": "Toxicity not reported"}, {"measurement": "Drug effects on cell functionality, Cardiomyocytes, Literature", "setting": "Cardiomyocytes", "value": "Toxicity not reported"}, {"measurement": "Drug effects on cell viability, Cardiomyocytes, Literature", "setting": "Cardiomyocytes", "value": "Toxicity not reported"}, {"measurement": "Cardiomyocyte viability, loss", "setting": "[8]", "value": "28 ± 6", "unit": "% loss"}, {"measurement": "Cardiomyocyte viability, loss", "setting": "[8]; listed as AMAP", "value": "28 ± 6% and 30%"}, {"measurement": "Skeletal muscle viability, loss", "setting": "Human Skeletal Myofibers [9]", "value": "Toxicity not observed"}, {"measurement": "Skeletal muscle viability, loss", "setting": "Human Skeletal Myofibers [9]; listed as AMAP", "value": "not affected"}, {"measurement": "Neuronal cell viability, loss (cell loss by morphology/cell count)", "setting": "neurons [10]", "value": "Toxicity not observed, some increase in cell numbers but not significant"}, {"measurement": "Neuronal cell viability, loss (cell loss by morphology/cell count)", "setting": "neurons [10]; listed as AMAP", "value": "No significant effects; also recorded: some increase in cell numbers; also recorded: no change in viability"}]}
{"smiles": "CCCC(CCC)C(=O)O", "note": "[Valproic Acid, Valproic acid]", "values": [{"measurement": "Urea production, decrease", "setting": "HepG2/C3A [2]; VPA 2 mM", "value": "13 ± 2", "unit": "%"}, {"measurement": "HSA (albumin) production, increase", "setting": "HepG2/C3A [3]", "value": "not affected"}, {"measurement": "HSA (albumin) production, increase", "setting": "HepG2/C3A [3]; listed as VPA", "value": "no changes"}, {"measurement": "Cardiomyocyte beating rate (beat frequency), increase", "setting": "[4]", "value": "38 ± 18% increase in beating frequency"}, {"measurement": "Cardiomyocyte beating rate (beat frequency), increase", "setting": "[4]; listed as VPA", "value": "38 ± 18", "unit": "%"}, {"measurement": "Neuronal electrophysiology, overall effect", "setting": "neurons [6]", "value": "Normal electrophysiology"}, {"measurement": "Neuronal electrophysiology, overall effect", "setting": "neurons [6]; listed as VPA", "value": "no changes compared to the control; also recorded: maintained the electrophysiological parameters"}, {"measurement": "Drug effects on cell functionality, Muscle, Literature", "setting": "Muscle", "value": "Toxicity not reported"}, {"measurement": "Drug effects on cell viability, Muscle, Literature", "setting": "Muscle", "value": "Toxicity not reported"}, {"measurement": "Drug effects on cell functionality, Neurons, Literature", "setting": "Neurons [7]", "value": "Toxicity not reported"}, {"measurement": "Drug effects on cell viability, Neurons, Literature", "setting": "Neurons [7]", "value": "Toxicity not reported"}, {"measurement": "Drug effects on cell functionality, Cardiomyocytes, Literature", "setting": "Cardiomyocytes", "value": "Cardio-protective effect"}, {"measurement": "Drug effects on cell viability, Cardiomyocytes, Literature", "setting": "Cardiomyocytes", "value": "Cardio-protective effect"}, {"measurement": "Concentration detected in patient plasma", "setting": "[11]", "value": "300 to 700", "unit": "µM"}, {"measurement": "Concentration known to be cytotoxic in vitro", "setting": "[12]", "value": "around 2 mM"}]}
